# Test system: high-fat-fed C57BL/6 mice
# Test: High-fat-diet C57BL/6 mice, Compound 1 7.5 mg/kg with antagomiR-control or antagomiR-122
# Format: in vivo
# Method: C57BL/6 mice were fed a 50% high fat diet (HFD) for four weeks. The control cohort received three hydrodynamic tail vein injections of a 5 μg antagomiR-control and six i.p injections of saline over three weeks. A second cohort was hydrodynamic tail vein injected with 5 μg antagomiR-122 (the reverse complement that inhibits activity of miR-122) three times and i.p injections of saline six times over three weeks. A third cohort was injected i.p. with Compound 1 (7.5 mg/kg) twice a week plus antagomiR-control once a week over the course of 3 weeks. The final cohort was injected i.p. with Compound 1 (7.5 mg/kg) twice a week plus antagomiR-122 injections once a week over the course of 3 weeks.
# High Fat diet fed mice. C57BL/6 male mice were fed for 8 weeks a 50% high fat diet (Envigo, DIETTD150235). All mice were kept in a pathogen-free facility, under a 12 h light/dark cycle. Research on mice was approved by the Hebrew University Institutional Animal Care and Ethics Committee.
# Compound 1 and AntagomiR injections to mice. C57BL/6 male mice, 7-8 weeks old, or Sgp130FC, 9-month-old male mice, were injected i.p. with 7.5 mg/kg Compound 1 dissolved in saline and 3% DMSO. Saline was injected as control. Mice were hydrodynamic tail vain injected with antagomiR-122 or antagomiR-control (negative control) (5 μg/mouse in 1.5 ml saline). Mice were sacrificed according to the legend of the figure describing the experimental results and the livers, white adipose and skeletal muscle tissues were frozen in liquid nitrogen or in OCT embedded frozen blocks, for further RNA and histologic analysis. AntagomiRs were obtained from Sigma Aldrich, see Table 3.
# Triglycerides and β-hydroxybutyrate quantification. To determine the liver and muscle lipid content, muscle and liver tissues (40-80 mg) were homogenized in 0.5 ml of chloroform: Tris solution (v/v, 1:1), the homogenate was transferred to 1 ml of chloroform: methanol solution (v/v, 2:1) centrifuged at 3000 rpm for 10 min. The organic phase was mixed with 5% Triton X100 in chloroform, dried and re-dissolved in water. After lipid extraction, TG concentration in samples was measured with Triglyceride Quantification Kit (BioVision), according to the manufactures instructions. β-hydroxybutyrate was determined utilizing commercial colorimetric kits (BioVision) directly from plasma samples.
# In an effort to determine whether the mechanism of action of miR-122 and Compound 1 are aligned at the same pathway, an experiment was designed in which both molecules, together and each separately, were administered. In this study, mice were fed with a 50% HFD and therapy was initiated 4 weeks after the animals were already on a diet, to establish NASH prior to treatment. Therapies (antagomiRs given once a week, due to a prolonged half time, and RS twice weekly, due to a plasma t/2 of 2.7 hrs) were initiated after 4 weeks and given for 3 weeks. The mice were weighed from week 3 and therapies initiated a week later. […] The liver was further analyzed to assess lipotoxicity. […] A surrogate marker for energy expenditure, β-hydroxybutyrate, was also measured. A reduction in energy expenditure is associated with reduced miR-122, and energy expenditure increased upon treating with Compound 1.
# Male C57BL/6J mice, 7 to 8 weeks old, were housed randomly in standard cages and were fed a HFD, or atherogenic diet (consisting 1% Chol and 0.5% cholic acid, see also Table 3). All mice had free access to water during the experimental period. During the feeding period body weight was monitored every 3 days. In the HFD experiment, after 4 or 6 weeks, the resultant obese mice were treated with antagomiR-122 ([…] once a week for 3 weeks), or i.p. injected with Compound 1 (RORα agonist, 7.5 mg/kg twice a week for 3 weeks; or 15 mg/kg 3 times a week for 3 weeks). The obese control (HFD) group was administered only saline with DMSO and antagomiR-control. […]
substance,measurement,setting,value
"antagomiR-122: small synthetic RNA, 2'-O-Me/phosphorothioate modified, cholesterol-linked, reverse complement that inhibits activity of miR-122 (antisense ACAAACACCAUUGUCACAC; 2'-O-methyl, phosphorothioate, cholesterol-linked, pattern not given here) [reference compound]",final body weight,"5 μg antagomiR hydrodynamic tail vein injection three times over three weeks, HFD",32 g
same,TG content in the muscle,"50% HFD, treatment for 3 weeks",increased

# — US12318393B2, “Modulators of orphan nuclear receptors for NASH and other metabolic disorders” (Emory University, priority 2018, dated 2025)
